“Also recorded” adds a separate entry of the source.
Key:
BRDc = experiment: Commercial feedlot trial NORS vs Micotil: BRDc incidence, relapse, mortality; assay type: in vivo, beef calves
From the text: Commingled, multi-sourced, mixed-breed beef calves were purchased from auction markets for these studies. […] Animals identified for the study were to be approximately 6 months old with an estimated initial mean body weight of between 400-600 lbs. All animals were transported via commercial cattle liners to the feedlot. […] After a 24-hour acclimatization period, the calves were screened, enrolled, randomized, processed, weighed, and temperature measured with blood samples taken by a veterinarian.
(§1) NORS was delivered with a spray device specifically designed for the study. […] Animals in the control cohort received an injection of Micotil® of 2 mL/100 lb.
Animals identified by the pen keepers as appearing to be sick were “pulled” and brought into a barn. The animal was then placed in a catch chute and assessed by a veterinarian, who was blinded to the study, and assigned a clinical score to each animal.
BRDc was diagnosed as positive based on temperature greater than 103.5° F. and a clinical pulmonary score of 3 or greater.
At day 150, all animals were assessed for average daily weight gain and recorded.
Animals that died during the first 35 days of the study, for any reason, were sent for pathology testing (done by a board certified, blinded, veterinary pathologist). The following sections were tested: Lungs (left anterior, left middle, left caudal, right anterior, right middle, right caudal), heart, nasal mucosa, pharynx, Retropharyngeal L.N. and trachea. Diagnosis for the cause of death was determined by the pathologist.
Deaths of animals from day 35 to 150 were recorded and the farm's pathologist identified the cause of death.
In order to evaluate the difference in BRDc positive rates between NORS and Micotil® treated animals, a non-inferiority analysis was conducted. Specifically, the null hypothesis that the BRDc positive rate in the Bovinex group (pB) is more than 7.5% higher than the rate in the Micotil® group (pM) was tested using a nonparametric bootstrap: • H0: pB−pM≧7.5% • vs. • H1: pB−pM<7.5%

[1] = Commercial feedlot trial NORS vs Micotil: weight gain; assay type: in vivo, beef calves
Procedure: as §1
During the follow-up period (day 35 to day 60), relapses requiring antibiotic intervention were recorded as part of the normal feedlot routine. At day 150, all animals were assessed for average daily weight gain and recorded.
In order to evaluate the effect of treatment on 35-day weight change, a linear mixed effects model was fit to the data. Specifically, the effect of treatment on weight change was evaluated while controlling for baseline weight (fixed effect) and pen (random effect). Confidence intervals are based on the linear mixed effects model and account for the possibility of correlation of animals grouped together within the same pen.

[2] = cited from earlier work
[3] = in vivo; cited from earlier work
[4] = tested on: Trichophyton mentagrophytes; experiment: Antifungal efficacy of NORS, mycelial viability; assay type: cell-based; conditions: 0.14% sodium nitrite (pH 6) or citric acid at pH 3.7 alone, 30-minute exposure
Trichophyton rubrum = experiment: Antifungal efficacy of NORS, mycelial viability; assay type: cell-based; conditions: 0.14% sodium nitrite (pH 6) or citric acid at pH 3.7 alone, 30-minute exposure

Q: For CC[C@H]1OC(=O)C[C@@H](O)[C@H](C)[C@@H](O[C@@H]2O[C@H](C)[C@@H](O)[C@H](N(C)C)[C@H]2O)[C@@H](CCN2C[C@H](C)C[C@H](C)C2)C[C@@H](C)C(=O)/C=C/C(C)=C/[C@@H]1CO[C@@H]1O[C@H](C)[C@@H](O)[C@@H](OC)[C@H]1OC [antibiotic, tilmicosin], which “# of BRDc positive animals” value (BRDc; Pen B2) is on record?
A: 1

Q: And the “% of BRDc positive animals” value (BRDc; Pen B2)?
A: 0.7%

Q: What about the “# of BRDc positive animals” value (BRDc; Pen B6) of the same compound?
A: 5

Q: What about the “% of BRDc positive animals” value (BRDc; Pen B6) of the same compound?
A: 3.7%

Q: What about the “# of BRDc positive animals” value (BRDc; Pen C3) of the same compound?
A: 3

Q: And the “% of BRDc positive animals” value (BRDc; Pen C3)?
A: 2.2%

Q: And the “# of BRDc positive animals” value (BRDc; Pen C7)?
A: 8

Q: What about the “% of BRDc positive animals” value (BRDc; Pen C7) of the same compound?
A: 6.2%

Q: And the “BRDc related deaths as diagnosed by the feedlot” value (BRDc; day 35-150)?
A: 3

Q: And the animals that died (BRDc; day 35-150)?
A: 12

Q: And the animals that died (BRDc; during the 35 days of the study)?
A: 8

Q: What about the “animals pulled for suspected illness” value (BRDc; first 35 days) of the same compound?
A: Thirty-three

Q: And the number of relapses (BRDc; followed until day 150)?
A: 10

Q: What about the “# of BRDc positive animals” value (BRDc; total of cohort, 35 days) of the same compound?
A: 17

Q: And the “% of BRDc positive animals” value (BRDc; total of cohort, 35 days)?
A: 3.2%

Q: And the average daily gain ([1]; 35 days)?
A: 2.0 lbs/day

Q: What about the “average 35-day weight gain” value ([1]; baseline weight of 554 lbs) of the same compound?
A: 70 lbs

Q: What about the average daily gain ([1]; day 150) of the same compound?
A: 2.61 lbs

Q: What about the average gain ([1]; day 150) of the same compound?
A: 392 lbs

Q: And the “additional weight gain relative to those treated with NORS” value ([1]; over 35 days)?
A: 5.5 lbs

Q: For [N]=O [NO, Nitric Oxide], which “half-life in the body” value [2] is on record?
A: less than 6 s

Q: Which “time remaining in the pulmonary system” value [3] does the source give for CCCNC[C@]1(O)[C@H](C)O[C@@H](O[C@H]2[C@H](C)[C@@H](O[C@@H]3O[C@H](C)C[C@H](N(C)C)[C@H]3O)[C@](C)(O)C[C@@H](C)CN[C@H](C)[C@@H](O)[C@](C)(O)[C@@H](CC)OC(=O)[C@@H]2C)C[C@@]1(C)OC [tulathromycin] here?
A: ≤ 28 days

Q: With O=NO [sodium nitrite] as the compound, how does the “effect of single component on mycelial growth” value (“effect of single component” for short) [4] read?
A: Minimal to no effect

Q: What about the “effect of single component” value ([4]; listed as nitrites) of the same compound?
A: no significant effect

Q: And the “effect of single component” value (Trichophyton rubrum)?
A: Minimal to no effect

Q: What about the “effect of single component” value (Trichophyton rubrum; listed as nitrites) of the same compound?
A: no significant effect

Q: What does the source list for O=C(O)CC(O)(CC(=O)O)C(=O)O [citric acid]?
A: effect of single component on mycelial growth [4]: Minimal to no effect; also recorded: no significant effect; effect of single component on mycelial growth (Trichophyton rubrum): Minimal to no effect; also recorded: no significant effect

Source: patent US20160051579A1, “NITRIC OXIDE TREATMENT OF BOVINE RESPIRATORY DISEASE COMPLEX AND OTHER RESPIRATORY CONDITIONS” (Bovicor Pharmatech, Inc., priority 2014, published 2016)
